Assay results published in the supplement of paper PMC10307832.

Columns and labels:
Test in all cases: relative viability (nuclei count vs DMSO), 5 days (fraction); higher = more cells survive
[1] = compound: C1CSC2=C(C(=O)N1)SC3=C2C=C(C=C3)O [kb NB 142-70] + N=C(N)NC(=N)NCCc1ccccc1 [Phenformin] (partner 250 µM)
How it was run: (§1)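 Relative viability equals treated-well nuclei counts divided by vehicle-well nuclei counts. Counts came from 4× images of lung cancer cell lines grown in 1536-well plates for 5 days after pin-tool dosing on the day after seeding. Dosing used one drug alone or a fixed anchor-drug dose plus five library-drug doses (not always all listed) in √10 steps, and values are medians of duplicate plates.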

[2] = compound: NCC(=O)Nc1ccc(-n2nc(C(F)(F)F)cc2-c2ccc3c(ccc4ccccc43)c2)cc1 + CC(=O)Nc1cccc(-n2c(=O)n(C3CC3)c(=O)c3c(Nc4ccc(I)cc4F)n(C)c(=O)c(C)c32)c1 [Trametinib] (partner 0.02 µM)
How it was run: as §1

[3] = compound: NCC(=O)Nc1ccc(-n2nc(C(F)(F)F)cc2-c2ccc3c(ccc4ccccc43)c2)cc1 + COc1cccc2cc(-c3nc([C@H]4CC[C@H](C(=O)O)CC4)n4ncnc(N)c34)[nH]c12 [OSI-027] (partner 0.5 µM)
How it was run: as §1

[4] = compound: C1CSC2=C(C(=O)N1)SC3=C2C=C(C=C3)O [kb NB 142-70] + Nc1ncn([C@H]2C[C@H](O)[C@@H](CO)O2)c(=O)n1 [Decitabine] (partner 2 µM)
How it was run: as §1

| Cell Line | relative viability ([1]; first compound 0.1 µM) | relative viability ([1]; first compound 1 µM) | relative viability ([1]; first compound 3.162 µM) | relative viability ([2]; first compound 0.02 µM) | relative viability ([2]; first compound 0.06325 µM) | relative viability ([2]; first compound 0.2 µM) | relative viability ([2]; first compound 0.6325 µM) | relative viability ([2]; first compound 2 µM) | relative viability ([3]; first compound 0.02 µM) | relative viability ([3]; first compound 0.06325 µM) | relative viability ([3]; first compound 0.6325 µM) | relative viability ([3]; first compound 2 µM) | relative viability ([4]; first compound 0.1 µM) | relative viability ([4]; first compound 1 µM) | relative viability ([4]; first compound 3.162 µM) | relative viability ([3]; first compound 0.2 µM) |
| --- | --- | --- | --- | --- | --- | --- | --- | --- | --- | --- | --- | --- | --- | --- | --- | --- |
| NCI-H1650 | 0.457 | 0.525 | 0.324 | 0.403 | 0.54 | 0.648 | 0.769 | 0.642 | 0.7 | 0.806 | 0.73 | 0.634 | 0.492 | 0.408 | 0.442 | – |
| NCI-H2085 | 0.706 | 0.756 | 0.371 | 0.402 | 0.623 | 0.507 | 0.547 | 0.626 | 0.688 | 0.908 | 0.691 | 0.802 | 0.55 | 0.522 | 0.448 | 0.654 |
| NCI-H1793 | 0.285 | 0.406 | 0.42 | 0.438 | 0.373 | 0.498 | 0.435 | 0.396 | 0.26 | 0.263 | 0.276 | 0.251 | 0.487 | 0.544 | 0.3 | 0.321 |
| LC-2-ad | 0.618 | 0.536 | 0.458 | 0.952 | 0.971 | 0.951 | 0.95 | 0.935 | 0.755 | 0.911 | 0.75 | 1.05 | 0.798 | 0.769 | 0.772 | 0.647 |
| COR-L 105 | 0.428 | 0.534 | 0.486 | 0.456 | 0.482 | 0.491 | 0.416 | 0.432 | 0.593 | 0.626 | 0.776 | 0.6 | 0.68 | 0.576 | 0.589 | 0.623 |
| NCI-H1355 | 0.485 | 0.451 | 0.453 | 0.414 | 0.481 | 0.47 | 0.428 | 0.433 | 0.35 | 0.427 | 0.45 | 0.511 | 0.39 | 0.355 | 0.342 | 0.315 |
| H3255 | 0.358 | 0.362 | 0.371 | 0.642 | 0.579 | 0.592 | 0.629 | 0.674 | 0.557 | 0.617 | 0.667 | 0.596 | 0.623 | 0.591 | 0.629 | 0.629 |
| NCI-H1993 | 0.567 | 0.488 | 0.549 | 0.494 | 0.41 | 0.586 | 0.64 | 0.515 | 0.545 | 0.493 | 0.483 | 0.542 | 0.63 | 0.589 | 0.514 | 0.541 |
| NCI-H1734 | 0.371 | 0.346 | 0.267 | 0.686 | 0.712 | 0.667 | 0.657 | 0.7 | 0.561 | 0.601 | 0.594 | 0.552 | 0.525 | 0.46 | 0.348 | 0.577 |
| HOP-62 | 0.666 | 0.663 | 0.534 | 0.395 | 0.378 | 0.378 | 0.368 | 0.336 | 0.852 | 0.801 | 0.778 | 0.812 | 0.217 | 0.203 | 0.226 | 0.828 |
| LOU-NH91 | 0.615 | 0.741 | 0.632 | 0.847 | 0.832 | 0.812 | 0.803 | 0.795 | 0.752 | 0.737 | 0.716 | 0.735 | 0.83 | 0.854 | 0.61 | 0.711 |
| ChaGo-K-1 | 0.513 | 0.49 | 0.453 | 0.832 | 0.903 | 0.882 | 0.83 | 0.842 | 0.475 | 0.661 | 0.592 | 0.548 | 0.509 | 0.515 | 0.461 | 0.468 |
| PC-14 | 0.658 | 0.56 | 0.619 | 0.861 | 0.704 | – | 0.625 | 0.608 | 0.769 | 0.949 | 0.82 | 0.726 | 0.187 | 0.284 | 0.193 | 0.937 |
| NCI-H1437 | 0.308 | 0.292 | 0.262 | 0.519 | 0.579 | 0.497 | 0.467 | 0.683 | 0.889 | 0.898 | 0.881 | 0.951 | 0.578 | 0.55 | 0.536 | 0.877 |
| NCI-H460 | 0.55 | 0.596 | 0.347 | 0.19 | 0.175 | 0.165 | 0.145 | 0.18 | 0.583 | 0.642 | 0.587 | 0.675 | 0.538 | 0.606 | 0.354 | 0.696 |
| NCI-H1666 | 0.558 | 0.526 | 0.467 | 0.905 | 0.849 | 0.914 | 0.868 | 0.851 | 0.932 | 0.836 | 0.845 | 0.861 | 0.76 | 0.712 | 0.603 | 0.945 |
| SW 900 | 0.495 | 0.521 | 0.193 | 0.889 | 1.04 | 1 | 0.736 | 0.78 | – | 0.54 | 0.648 | 0.507 | 0.473 | 0.4 | 0.418 | 0.627 |
| NCI-H1651 | 0.327 | 0.321 | 0.205 | 0.804 | 0.815 | 0.858 | 0.798 | 0.851 | 0.655 | 0.929 | 0.584 | 0.803 | 0.61 | 0.607 | 0.491 | 0.628 |
| NCI-H1755 | 0.586 | 0.587 | 0.638 | 0.782 | 0.765 | 0.737 | 0.768 | 0.71 | 0.711 | 0.68 | 0.71 | 0.759 | 0.7 | 0.729 | 0.727 | 0.685 |
| NCI-H661 | 0.286 | 0.263 | 0.247 | 0.547 | 0.559 | 0.56 | 0.644 | 0.588 | 0.681 | 0.691 | 0.673 | 0.715 | 0.614 | 0.588 | 0.496 | 0.724 |
